According to ChEMBL document CHEMBL1201862, “PubChem BioAssay data set” (2004):
Active and inactive are the calls of the source. Cut-off read from the data, not from the text of the source, for most assays here: actives have a measured EC50 and inactives only a lower limit.

Key:
[1] = target: Heat shock protein HSP 90-alpha (Homo sapiens, UniProt P07900); type: functional, organism-based
[2] = Luminescence Cell-Based Dose Confirmation HTS to Identify Inhibitors of Platelet Dense Granule Release. [Related pubchem assays: 1663 (Primary HTS), 1678 (Summary of Project)]; type: functional
[3] = target: Luciferin 4-monooxygenase (Photinus pyralis, UniProt P08659); test: inhibition of purified Photinus pyralis luciferase – biochemical, luminescence, dose response (AID 1891)
[4] = target: FAD-linked sulfhydryl oxidase ALR (Homo sapiens, UniProt P55789); test: ALR-catalysed DTT oxidation blockers – biochemical, H2O2 detection, luminescence, cherry-pick, dose response (AID 493248)
BJ [5] = test: BJ-TERT-LT-ST fibroblast viability loss – cell-based, RAS-independent, luminescence, dose response (AID 1935); type: functional; conditions: Homo sapiens;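 note: BJ fibroblasts immortalized with TERT plus LT and ST oncogenes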
[6] = DRD fibroblast viability loss – cell-based, non-viral oncogenic, luminescence, dose response (AID 1934); type: functional; conditions: Homo sapiens
BJ [7] = test: BJ-TERT fibroblast viability loss – cell-based, RAS-independent, luminescence, dose response (AID 1933); type: functional; conditions: Homo sapiens
BJ [8] = test: cells; type: functional, cell-based; conditions: Homo sapiens
Fatty acid synthase [9] = target: T1, Fatty acid synthase (Homo sapiens, UniProt P49327); test: inhibition of human FAS-TE enzyme activity – biochemical, kinetic fluorescence intensity, dose response (AID 624326); type: functional;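 note: rate of fluorescence rise from hydrolysis of a fluorogenic O-methyl fluorescein ester substrate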
H4 = test: Luminescence Cell-Based Dose Response HTS to Identify Activators of 5'UTR Stem-Loop Driven Prion Protein mRNA Translation in H4 Neuroglioblastoma Cells. [Related pubchem assays: 1829 (Project Summary), 1814 (Primary HTS)]; type: functional; conditions: Homo sapiens
[10] = Luminescence Cell-Based Dose Response HTS to Identify Activators of Luciferase Translation or Activity in H4 […] Cells. [Related pubchem assays: 1829 (Project Summary), 1814 (Primary HTS)]; type: functional
[11] = Luminescence Cell-Based Dose Confirmation HTS to Identify Activators of 5'UTR Stem-Loop Driven Alpha-Synuclein mRNA Translation in H4 Neuroglioblastoma Cells. [Related pubchem assays: 1829 (Project Summary), 1814 (Primary HTS)]; type: functional
[12] = viability of HCT116 lacking mutant beta-catenin – cell-based, human colon tumor, dose response (AID 1045); type: functional;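 note: HCT116 colon tumor cells with beta catenin knocked out; cells exposed to compound for 60 hours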
[13] = viability of PTEN-deleted HCT116 cells – cell-based, HCT116 PTEN knockout, dose response (AID 1047); type: functional;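 note: HCT116 colon tumor cells with PTEN knocked out; cells exposed to compound for 60 hours before readout; potency for loss of cell viability measured by luminescence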
[14] = Trypanosoma cruzi growth suppression in host cells – NIH3T3 host cells, beta-gal luminescence, confirmation (AID 2044); type: functional, cell-based;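 note: intracellular parasites grown in NIH/3T3 mouse fibroblasts as host cells; luminescent beta-galactosidase reporter signal from transgenic T. cruzi replicating inside host cells; inhibitors lower the luminescence signal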
[15] = NIH3T3 cell viability loss – ATP luminescence, mouse fibroblasts, counter-screen, dose response (AID 2010); type: functional, cell-based;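 note: cells exposed to compound for about 90 hours before reading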
Fatty acid synthase [16] = target: T1, Fatty acid synthase; test: inhibition of human FAS-TE enzyme activity – biochemical, endpoint fluorescence intensity, uHTS hits, dose response (AID 624327); type: functional;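 note: fluorescence from hydrolysis of an O-methyl fluorescein acyl ester substrate by the enzyme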

Chain of FAD-linked sulfhydryl oxidase ALR (P55789 whole entry): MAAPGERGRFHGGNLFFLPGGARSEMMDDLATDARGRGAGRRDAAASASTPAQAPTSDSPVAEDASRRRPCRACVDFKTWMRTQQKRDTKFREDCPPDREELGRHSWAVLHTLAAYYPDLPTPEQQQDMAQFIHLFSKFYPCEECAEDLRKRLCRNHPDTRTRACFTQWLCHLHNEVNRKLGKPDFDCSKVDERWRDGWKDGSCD
Chain of Luciferin 4-monooxygenase (P08659 whole entry): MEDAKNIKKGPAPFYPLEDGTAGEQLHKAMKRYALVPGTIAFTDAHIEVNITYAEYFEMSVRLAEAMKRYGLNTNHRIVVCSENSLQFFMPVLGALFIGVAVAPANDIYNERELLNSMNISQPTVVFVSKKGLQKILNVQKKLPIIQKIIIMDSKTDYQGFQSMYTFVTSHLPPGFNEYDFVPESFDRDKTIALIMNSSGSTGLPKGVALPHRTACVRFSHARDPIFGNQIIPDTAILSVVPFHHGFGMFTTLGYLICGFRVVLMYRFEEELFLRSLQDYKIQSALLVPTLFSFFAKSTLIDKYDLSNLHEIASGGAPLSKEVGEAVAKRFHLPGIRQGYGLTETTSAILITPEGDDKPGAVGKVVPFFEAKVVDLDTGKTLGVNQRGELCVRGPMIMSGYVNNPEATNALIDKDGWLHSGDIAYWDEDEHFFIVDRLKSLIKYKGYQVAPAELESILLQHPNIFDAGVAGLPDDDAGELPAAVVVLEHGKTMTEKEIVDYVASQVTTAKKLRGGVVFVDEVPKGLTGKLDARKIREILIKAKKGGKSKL
T1 sequence (P49327 whole entry): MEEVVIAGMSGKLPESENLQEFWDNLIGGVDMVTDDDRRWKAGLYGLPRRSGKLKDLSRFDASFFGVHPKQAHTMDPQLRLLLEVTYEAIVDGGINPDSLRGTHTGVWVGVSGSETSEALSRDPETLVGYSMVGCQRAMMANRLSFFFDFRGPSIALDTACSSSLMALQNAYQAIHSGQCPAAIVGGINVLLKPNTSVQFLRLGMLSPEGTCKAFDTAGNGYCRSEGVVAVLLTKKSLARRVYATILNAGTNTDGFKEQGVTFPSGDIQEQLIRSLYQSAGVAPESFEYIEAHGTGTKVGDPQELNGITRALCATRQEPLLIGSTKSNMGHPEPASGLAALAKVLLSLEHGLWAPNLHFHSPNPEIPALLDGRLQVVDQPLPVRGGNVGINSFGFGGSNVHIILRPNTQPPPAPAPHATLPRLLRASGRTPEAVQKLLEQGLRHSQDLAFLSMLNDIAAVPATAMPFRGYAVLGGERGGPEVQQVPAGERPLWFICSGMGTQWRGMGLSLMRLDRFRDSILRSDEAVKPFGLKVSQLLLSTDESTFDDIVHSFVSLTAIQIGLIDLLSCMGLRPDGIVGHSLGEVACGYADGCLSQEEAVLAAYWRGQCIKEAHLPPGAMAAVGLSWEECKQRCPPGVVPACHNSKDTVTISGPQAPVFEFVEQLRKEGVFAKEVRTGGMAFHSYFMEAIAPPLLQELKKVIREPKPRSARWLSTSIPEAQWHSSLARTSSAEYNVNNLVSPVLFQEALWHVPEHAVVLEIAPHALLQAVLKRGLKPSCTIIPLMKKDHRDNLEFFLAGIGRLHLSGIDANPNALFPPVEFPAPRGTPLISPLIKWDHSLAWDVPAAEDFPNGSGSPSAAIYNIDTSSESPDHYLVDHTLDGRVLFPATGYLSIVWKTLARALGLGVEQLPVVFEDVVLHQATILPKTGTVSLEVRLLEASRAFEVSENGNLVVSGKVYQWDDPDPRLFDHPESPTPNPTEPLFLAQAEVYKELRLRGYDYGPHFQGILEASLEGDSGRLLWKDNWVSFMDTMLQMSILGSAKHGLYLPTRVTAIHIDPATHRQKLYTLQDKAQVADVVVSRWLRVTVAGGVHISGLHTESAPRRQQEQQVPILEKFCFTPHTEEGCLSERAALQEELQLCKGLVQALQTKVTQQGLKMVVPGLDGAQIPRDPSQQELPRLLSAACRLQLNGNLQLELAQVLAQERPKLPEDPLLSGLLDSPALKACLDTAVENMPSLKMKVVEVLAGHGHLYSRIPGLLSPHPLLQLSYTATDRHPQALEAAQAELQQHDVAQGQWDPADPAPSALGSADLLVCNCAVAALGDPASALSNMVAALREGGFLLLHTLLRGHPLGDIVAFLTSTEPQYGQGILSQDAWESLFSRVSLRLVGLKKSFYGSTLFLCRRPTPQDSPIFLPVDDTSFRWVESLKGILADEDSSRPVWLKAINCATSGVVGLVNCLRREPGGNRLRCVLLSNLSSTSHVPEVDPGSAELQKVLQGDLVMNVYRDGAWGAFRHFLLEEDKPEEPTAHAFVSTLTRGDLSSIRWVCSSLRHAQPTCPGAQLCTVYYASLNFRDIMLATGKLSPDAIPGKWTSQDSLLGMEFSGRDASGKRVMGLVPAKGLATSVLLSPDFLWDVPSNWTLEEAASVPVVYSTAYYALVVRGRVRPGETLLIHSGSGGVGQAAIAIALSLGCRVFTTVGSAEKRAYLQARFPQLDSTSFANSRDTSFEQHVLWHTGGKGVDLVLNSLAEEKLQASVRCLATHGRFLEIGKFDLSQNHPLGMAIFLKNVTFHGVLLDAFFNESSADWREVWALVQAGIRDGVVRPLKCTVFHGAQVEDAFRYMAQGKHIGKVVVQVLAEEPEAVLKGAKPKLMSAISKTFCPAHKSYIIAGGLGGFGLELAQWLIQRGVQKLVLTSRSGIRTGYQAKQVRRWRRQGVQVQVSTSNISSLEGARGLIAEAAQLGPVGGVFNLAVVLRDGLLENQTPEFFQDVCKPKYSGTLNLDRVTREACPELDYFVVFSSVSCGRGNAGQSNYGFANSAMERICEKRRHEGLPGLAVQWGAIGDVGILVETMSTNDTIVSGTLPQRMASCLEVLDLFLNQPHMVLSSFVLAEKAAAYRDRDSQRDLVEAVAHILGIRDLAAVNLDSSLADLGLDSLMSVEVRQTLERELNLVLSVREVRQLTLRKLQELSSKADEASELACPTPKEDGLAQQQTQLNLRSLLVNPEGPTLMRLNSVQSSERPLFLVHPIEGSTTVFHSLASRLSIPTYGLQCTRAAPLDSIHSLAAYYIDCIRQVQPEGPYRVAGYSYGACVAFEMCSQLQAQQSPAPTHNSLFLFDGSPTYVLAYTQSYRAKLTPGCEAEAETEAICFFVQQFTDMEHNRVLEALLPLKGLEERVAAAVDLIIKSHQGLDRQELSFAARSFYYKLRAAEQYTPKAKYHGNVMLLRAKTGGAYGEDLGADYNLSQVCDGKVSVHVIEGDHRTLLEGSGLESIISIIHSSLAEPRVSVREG

Which AC50 [1] does the source give for `O=C(OCC(=O)N1CCN(C(=O)c2ccco2)CC1)c1cc(-c2ccccc2)nc2ccccc12` here?
The AC50 was 4.24 µM (active).

What does the source list for `COc1cccc(C(c2sc3ncnn3c2O)N2CCN(C(=O)c3ccco3)CC2)c1` (configuration not stated)?
EC50 [2]: > 112 µM (not active); EC50 [3]: > 112 µM (not active)

Which results are given for `CN(C)c1oc(-c2ccco2)nc1C#N`?
EC50 [2]: > 112 µM (not active); EC50 [3]: > 112 µM (not active)

Which AC50 [4] does the source give for `CCN(CC)c1ccc(NC(=O)c2nc3nc(C)cc(C(F)F)n3n2)cc1` here?
Its AC50 is 1.51 µM (active).

What does the source list for `Cn1cc(S(=O)(=O)N2CCOCC2)cc1C(=O)Nc1cccc(Cl)c1`?
EC50 [2]: > 112 µM (not active); EC50 [3]: > 112 µM (not active)

Which EC50 [2] does the source give for `COc1cccc(NC(=O)c2ccc3c(c2)OCCO3)c1` here?
Its EC50 is 3.52 µM (active).

And the EC50 (BJ [5])?
Its EC50 is > 150 µM (inconclusive).

And the EC50 [3]?
The EC50 was 4.7 µM (active).

And the EC50 [6]?
Its EC50 is 15.7 µM (active).

And the EC50 (BJ [7])?
Its EC50 is 20.9 µM (active).

And the EC50 (BJ [8])?
The EC50 was 18.2 µM (active).

Which IC50 (Fatty acid synthase [9]) does the source give for `O=S(=O)(c1ccc(-c2csc(-c3cccnc3)n2)cc1)N1CCOCC1` here?
Its IC50 is 4.92 µM (active).

For `CCOC(=O)c1ccc(Nc2nnc(C)c3ccccc23)cc1`, which EC50 (H4) is on record?
Its EC50 is 16.9 µM (active).

What about the EC50 [10] of the same compound?
The EC50 was 18.6 µM (active).

What about the EC50 [11] of the same compound?
The EC50 was 14.4 µM (active).

Which EC50 (H4) does the source give for `Brc1ccc2nc(-c3cccs3)c(NCC3CCCO3)n2c1` (configuration not stated) here?
Its EC50 is 17.5 µM (active).

What about the EC50 [10] of the same compound?
The EC50 was 9.6 µM (active).

And the EC50 [11]?
Its EC50 is 18.9 µM (active).

Which results are given for `COc1ccc(Oc2ccc(/C=C/C(=O)c3ccc(O)cc3)cc2[N+](=O)[O-])cc1`?
EC50 [12]: 2.14 µM (active); EC50 [13]: 2.53 µM (active)

For `O=C(NCC(c1cccnc1)N1CCN(c2ccccc2)CC1)c1ccco1` (configuration not stated), which AC50 [4] is on record?
Its AC50 is 3.08 µM (active).

And the EC50 [14]?
Its EC50 is 0.998 µM (active).

And the EC50 [15]?
The EC50 was > 60 µM (not active).

For `COc1ccc([N+](=O)[O-])cc1NC(=O)COC(=O)/C=C/c1ccco1`, which IC50 (Fatty acid synthase [16]) is on record?
The IC50 was 5.11 µM (active).

What about the IC50 (Fatty acid synthase [9]) of the same compound?
Its IC50 is 8.49 µM (active).

For `O=C(COC(=O)c1cc([N+](=O)[O-])ccc1N1CCOCC1)Nc1ccccc1OC(F)F`, which IC50 (Fatty acid synthase [16]) is on record?
Its IC50 is 4.73 µM (active).

And the IC50 (Fatty acid synthase [9])?
The IC50 was 5.1 µM (active).

For `Fc1cc(Br)ccc1N=C(S)NCCc1ccccc1`, which EC50 (H4) is on record?
The EC50 was 27.5 µM (active).

And the EC50 [10]?
Its EC50 is 21.3 µM (active).

What about the EC50 [11] of the same compound?
The EC50 was 15.9 µM (active).

With `Nc1ccc(CCc2ccc(N)cc2)cc1` as the compound, how does the AC50 [4] read?
Its AC50 is 1.91 µM (active).

With `O=C(Nc1ccc(C(F)(F)F)cc1)c1cccc(-n2cnnn2)c1` as the compound, how does the IC50 (Fatty acid synthase [16]) read?
Its IC50 is 11.1 µM (active).

And the IC50 (Fatty acid synthase [9])?
The IC50 was 5.97 µM (active).

For `O=C(O)c1cc(O)ccc1NC(=O)c1cccc2ccccc12`, which AC50 [4] is on record?
Its AC50 is 3.41 µM (active).

Which IC50 (Fatty acid synthase [16]) does the source give for `O=C(NCCC(=O)N(CCc1ccccc1)Cc1ccccc1)c1ccc([N+](=O)[O-])cc1` here?
Its IC50 is 8.21 µM (active).

What about the IC50 (Fatty acid synthase [9]) of the same compound?
The IC50 was 8.92 µM (active).

Which AC50 [1] does the source give for `Cc1nn(-c2ccc([N+](=O)[O-])cc2)c(O)c1/C=N/CCN1CCN(C(=O)c2ccccc2F)CC1` here?
The AC50 was 5.72 µM (active).

For `OCCSc1nncn1/N=C/c1c[nH]c2ccccc12`, which EC50 [2] is on record?
Its EC50 is > 112 µM (not active).

And the EC50 [3]?
Its EC50 is > 112 µM (not active).

For `O=C1N=C(c2ccccc2)N(c2ccccc2)C(=O)/C1=C(/O)c1ccccc1`, which EC50 (H4) is on record?
Its EC50 is > 120 µM (not active).

And the EC50 [10]?
Its EC50 is > 120 µM (not active).

And the EC50 [11]?
The EC50 was 19.2 µM (active).

Which EC50 [12] does the source give for `OC(CCCN1CCC(O)(c2ccc(Cl)cc2)CC1)c1ccc(F)cc1` (configuration not stated) [HYDROXYHALOPERIDOL] here?
Its EC50 is 28.4 µM (active).

What about the EC50 [13] of the same compound?
Its EC50 is 29.3 µM (active).
